Assay results published in article PMC8047011, “Enantiomers of 2-methylglutamate and 2-methylglutamine selectively impact mouse brain metabolism and behavior” (Scientific Reports, 2021).
Values belong to the compound of their own block, whether it stands above or below them.

Tests used:
human glutaminase GLS1 = target: T1, human glutaminase GLS1 (Homo sapiens, UniProt O94925); test: Catalysis of 2MeGln hydrolysis by GLS1 glutaminase; type: biochemical
T1 sequence (O94925 55-669): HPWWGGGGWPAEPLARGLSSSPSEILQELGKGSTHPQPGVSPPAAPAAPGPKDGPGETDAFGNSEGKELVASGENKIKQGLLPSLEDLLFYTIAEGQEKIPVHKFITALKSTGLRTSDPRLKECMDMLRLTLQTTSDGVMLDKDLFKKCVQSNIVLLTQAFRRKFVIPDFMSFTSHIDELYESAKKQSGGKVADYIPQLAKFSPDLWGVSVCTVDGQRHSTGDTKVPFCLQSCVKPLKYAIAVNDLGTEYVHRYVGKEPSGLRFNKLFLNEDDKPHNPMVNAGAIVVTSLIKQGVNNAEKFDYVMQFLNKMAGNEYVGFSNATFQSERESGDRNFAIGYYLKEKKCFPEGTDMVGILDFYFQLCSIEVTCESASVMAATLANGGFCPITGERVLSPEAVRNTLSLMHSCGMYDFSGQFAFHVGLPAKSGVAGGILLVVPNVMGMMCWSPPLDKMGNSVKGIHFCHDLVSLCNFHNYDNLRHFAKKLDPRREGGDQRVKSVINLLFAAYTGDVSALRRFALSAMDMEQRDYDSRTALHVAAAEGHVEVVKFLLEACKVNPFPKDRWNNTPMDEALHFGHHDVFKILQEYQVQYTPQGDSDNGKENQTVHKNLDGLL
Experimental: The procedure was adapted from an existing protocol. To a reaction mixture in a 1.5 mL microcentrifuge tube containing 10 mM rac-2MeGln or L-Gln-^13C2 in 100 mM phosphate pH 7.4 buffer made in 20% atom ^18O water, recombinant GLS1 (final concentration: 5 ng/mL) was added. The tubes were incubated in a preheated thermomixer at 37 °C and periodically shaken at 600 rpm (30 s on, 30 s off). 5 μL aliquots were collected in triplicate every 5 min and immediately diluted with 195 μL of cold 60% ACN containing 10 μM Glu-d5 and Gln-d5 as internal standards in a 96 well plate. After collecting all samples, the plate was shaken at 1000 rpm for 5 min at room temperature, and then stored at − 80 °C. Before analysis the plate was thawed and 10 μL aliquots of the extracted reaction mixtures were diluted with 190 μL of 90% acetonitrile.
The quantification of the newly formed 2MeGlu in the presence of the preexisting trace amounts was performed in the following way. Peak area ratio of Glu-^13C2 to Glu-^13C2^18O was calculated in all samples containing Glu-^13C2. The mean ratio value was then applied to calculate the hypothetical peak area of the newly formed 2MeGlu based on the directly measured 2MeGlu-^18O peak area. The ratio of the newly formed 2MeGlu peak area and the total 2MeGlu peak area was applied to calculate the concentration of the newly formed 2MeGlu from the total 2MeGlu concentration determined directly using the calibration curve.

[1] = system: murine primary cerebral cortical neuron cultures; test: Neuronal transport and metabolism of 2MeGln; type: cell-based, mouse; settings: 1 mM substrate, 2 h, 37 °C; data not shown
Experimental: The procedure was adapted from an existing protocol. Wild-type (WT) C57BL/6J mating pairs were housed according to Stanford IACUC protocol. On day P0, pups were euthanized and brains dissected in cold HBSS (without Ca^2+ or Mg^2+). The forebrain was microdissected to isolate the cortex and hippocampus. These brain regions were minced in cold HBSS before trypsinization at 37 °C for 9 min, followed by trituration, through 2 glass polished Pasteur pipettes. The resulting cell suspension was passed through a 100 μm filter to isolate single cells which were sedimented at 250g for 5 min. The cell pellet was then resuspended in complete Neural Basal Media (Neural Basal Media + Glutamax + B-27 Plus Supplement + Pen/Strep) + 10%FBS, counted using a hemocytometer and plated at 1 × 10^6 cells per mL into a 24 well plate (1 mL per well) coated with poly-D-lysine and laminin. Cultures were grown at 37 °C/5% CO2 in a tissue culture incubator. Media was exchanged 50% on day 1 in vitro (1DIV) with fresh complete Neural Basal Media without FBS and thereafter every other day with the same media. On 3DIV the media was spiked with 2 μM AraC to limit glial growth. On 10DIV the media was completely replaced with 500 μL Neural Basal Media containing B-27 Plus Supplement + Pen/Strep without added Glutamax but instead containing 1 mM substrate at 37 °C for 2 h. […]

[2] = target: human glutamine synthetase (Homo sapiens, UniProt P15104); parameters: method as in PMID 5320388; settings: identical conditions with L-Glu; cited from earlier work
Chain of human glutamine synthetase (P15104 whole entry): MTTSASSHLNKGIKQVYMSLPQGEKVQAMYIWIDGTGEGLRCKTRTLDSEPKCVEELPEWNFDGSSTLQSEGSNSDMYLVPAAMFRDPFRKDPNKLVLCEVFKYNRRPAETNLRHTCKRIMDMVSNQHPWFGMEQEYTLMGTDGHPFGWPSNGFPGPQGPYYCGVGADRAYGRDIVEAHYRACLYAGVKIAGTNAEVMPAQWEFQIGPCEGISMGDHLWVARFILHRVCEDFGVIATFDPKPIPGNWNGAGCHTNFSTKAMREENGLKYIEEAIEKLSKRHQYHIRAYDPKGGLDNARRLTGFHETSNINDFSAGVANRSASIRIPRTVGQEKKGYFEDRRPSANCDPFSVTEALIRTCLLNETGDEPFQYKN

[3] = Metabolism in synaptosomes (GABA shunt, glutamate-glutamine cycle); type: in vitro ADME, mouse; settings: mouse, mouse cerebral synaptosomes; synaptosomes preloaded with 100 μM substrate, 37 °C; estimated; read-out: Synaptosomal concentration half life
Experimental: (§1) To each tube, a 5 μL aliquot of a test compound solution (final concentration 100 μM) in Buffer KRP or Buffer KRP alone were added. The samples were incubated for 15 min at 37 °C, briefly chilled on ice, and then immediately centrifuged and washed twice by resuspension-centrifugation with Buffer S (0.5 mL). The pellets were then resuspended in Buffer KRP (500 μL). Samples were then immediately centrifuged or incubated for 5, 10, 15, 20, 25 or 30 min at 37 °C and then centrifuged and washed by resuspension-centrifugation with Buffer S (0.5 mL). Resulting pellets were resuspended in 170 μL of 0.1% aqueous formic acid, mixed with 330 μL of ACN. To each tube, 5 μL of 2MeGlu solution (final concentration 100 μM) in Buffer KRP or Buffer KRP alone were added. The samples were incubated for 15 min at 37 °C, briefly chilled on ice, and then immediately centrifuged and washed twice by resuspension-centrifugation with Buffer S (0.5 mL). The pellets were then resuspended in Buffer KRP (200 μL). Samples were then kept on ice or incubated for 10, 20, 30, 40 or 50 min at 37 °C and then chilled on ice. Then all samples were centrifuged, 200 μL of supernatants were collected, and the pellets were suspended in 200 μL of 80% ACN. Supernatants and pellet suspensions were diluted with 250 μL of ACN and 50 μL of 10 μM d[…] in water as internal standard.

[4] = system: mouse cerebral synaptosomes; test: as above; type: in vitro ADME; settings: synaptosomes preloaded with 100 μM substrate
Experimental: as §1

[5] = system: mouse cerebral synaptosomes; test: Potassium-induced neurotransmitter release assay; type: cell-based; settings: preincubated with 100 μM substrate 15 min 37 °C; high-potassium KRP buffer
Experimental: To each tube, 2.5 μL of a test compound solution (final concentration 100 μM) in Buffer KRP or Buffer KRP alone were added. Samples were incubated for 15 min at 37 °C, briefly chilled on ice, and then immediately centrifuged and washed twice with Buffer KRP. The resulting pellets were then resuspended in either Buffer KRP (500 μL) or Buffer K-KRP (500 μL). Samples were immediately centrifuged or incubated for 5, 10 or 15 min at 37 °C, then centrifuged and washed with Buffer KRP. Resulting pellets were resuspended in 400 μL of 60% ACN containing 2.5 μM Glu-d5 and 2.5 μM Gln-d5 as internal standards.

[6] = system: mouse cerebral synaptosomes; test: Synaptosomal neurotransmitter uptake assay; type: cell-based; settings: 10 μM substrate, 37 °C
Experimental: Mouse cerebral synaptosomes were prepared according to published methods. See Supplementary Methods for details. 500 μL aliquots of the synaptosome suspension were transferred to pre-chilled microcentrifuge tubes for experiments. Centrifugations were at 8000g for 4 min at 4 °C, unless stated otherwise, and all samples were stored at − 80 °C.
To each tube, 5 μL of a test compound solution (final concentration 10 μM) in Buffer KRP or Buffer KRP alone were added. Samples were incubated at 4 °C or 37 °C for 1, 10, or 30 min and then immediately centrifuged and washed twice by resuspension–centrifugation with Buffer S (0.5 mL). Resulting pellets were resuspended in 170 μL of 0.1% aqueous formic acid and mixed with 330 μL of ACN.
Buffer S (4 mL, × 1) and Buffer KRP (2 mL, × 3). The resulting pellet was resuspended in 3 mL of Buffer KRP and filtered on Ultrafree-CL 5 μm PVDF centrifugal device (1,000g for 4 min at 4 °C). The filtrate was diluted to 15 mL with ice cold Buffer KRP and kept on ice. The synaptosome preparation was used immediately in the following experiments.
Synaptosomal neurotransmitter uptake assay
96-well plate experiments: 250 μL aliquots of the synaptosome suspension were transferred to two 0.8-mL 96 well plates, one on ice (0 °C samples only) and one in a thermoblock (37 °C samples only), and equilibrated for 10 min. 5 μL of a test compound (0.5 mM; final concentration: 10 μM) in Buffer KRP or Buffer KRP blank were added 10, 20 or 30 min before the incubation termination. “0 min” samples were prepared by placing the test compound solution in a separate pre-chilled V-shape bottom 2-mL 96 well plate; at the end of incubation 200 μL aliquots of all samples were transferred to the 2-mL 96 well plate and centrifuged (2,500g for 15 min at 4 °C) immediately. The resulting pellets were rinsed with Buffer KRP, followed by centrifugation, twice, then resuspended in 200 μL of 60% ACN containing 2.5 μM Glu-d5 as internal standard and stored at –80 °C until analysis. […]

[7] = system: primary murine cerebral astrocytes; test: Astrocyte transport and metabolism of 2MeGlu; type: cell-based, mouse; settings: 1 mM substrate, 2 h, 37 °C
Experimental: Primary astrocytes from C57Bl/6 mouse brain were cultured in complete astrocyte growth medium at 37 °C at 5% CO2 on 96 well plates. Cells were exposed to 1 mM compound in 100 μL medium for 2 h at 37 °C. Supernatants were collected, centrifuged at 2500g for 10 min at 4 °C. 10 μL aliquots were diluted with 190 μL 60% ACN containing 10 μM Glu-d5 and Gln-d5. Cells were quickly washed with 250 μL cold PBS twice and suspended in 200 μL of 60% ACN containing 10 μM Glu-d5 and Gln-d5. All samples were shaken at 1000 rpm for 5 min and then stored at – 80 °C.

Apparent reaction rate of GLS1 hydrolysis (human glutaminase GLS1; 10 mM substrate, 5 ng/mL enzyme, phosphate pH 7.4): 65 µM/min
Compound: NC(=O)CC[C@H](N)C(=O)O [Gln, L-glutamine, reference compound]

Intracellular [1,2-13C]Gln relative to 2MeGln in neurons [1]: twofold lower | Intracellular [1,2-13C]Glu relative to 2MeGlu in neurons [1]: over fivefold lower
Compound: NC(=O)CC[13C@H](N)[13C](=O)O [L-[1,2-^13C]Gln]

half-life at 100 μM [3]: 21 min
Compound: CC(N)(CCC(=O)O)C(=O)O (racemic) [rac-2MeGlu, 2-methylglutamate]
Inorganic phosphate released with GS and ATP relative to L-Glu [2]: 50% | Metabolism along the GABA shunt in synaptosomes [4]: not associated with the concurrent appearance of 4APA or any other 2Me analogue within the GABA shunt

Compound: CC(N)CCC(=O)O (racemic) [rac-4APA, 4-aminopentanoic acid]
Potassium-induced release from preloaded synaptosomes [5]: exhibited high potassium concentration-dependent release | Transport into synaptosomes [6]: transported into synaptosomes

Extracellular concentration of amide product (2MeGln or [1,2-13C]Gln), astrocyte cultures [7]: 5.0 nmol/well | Intracellular concentration of amide product (2MeGln or [1,2-13C]Gln) in astrocytes [7]: 0.26 nmol/well
Compound: N[C@@H](CCC(=O)O)C(=O)O [L-[1,2-^13C]Glu, reference compound]

Substrate for GLS1 (human glutaminase GLS1): substrates of GS and GLS1, respectively
Compound: C[C@](N)(CCC(N)=O)C(=O)O [(S)-2MeGln, (S)-2-methylglutamine]
